As a reminder, the melting point is the temperature, or range, at which the solid turns liquid.

The compound `Cn1cc(N2CCN(Cc3ccccc3)CC2)c(=O)n(C)c1=O` yielded a melting point of 162 °C.
`Cn1nc(N2CCN(c3cccc(C(F)(F)F)c3)CC2)c(=O)n(C)c1=O`: the melting point worked out at 163 °C.
Consider `COc1ccccc1OC1CCN(c2nn(C)c(=O)n(C)c2=O)CC1` [Example 34, 6-[4-(2-methoxy-phenoxy)-piperidin-1-yl]-2,4-dimethyl-2H-[1,2,4]triazine-3,5-dione], for which the melting point amounted to 78 °C.
For the compound `Cn1nc(N2CCC(C(=O)c3ccc(F)cc3)CC2)c(=O)n(C)c1=O` [Example 36, 6-[4-(4-fluoro-benzoyl)-piperidin-1-yl]-2,4-dimethyl-2H-[1,2,4]triazine-3,5-dione], the melting point was 129 °C.
In turn, `Cn1nc(N2CCC(Oc3ccccc3C(F)(F)F)C2)c(=O)n(C)c1=O` (stereo not shown) [Example 37, 2,4-dimethyl-6-[3-(2-trifluoromethyl-phenoxy)-pyrrolidin-1-yl]-2H-[1,2,4]triazine-3,5-dione] came in with a melting point of 84 °C.
As for `Cn1nc(N2CCC(Oc3ccccc3)C2)c(=O)n(C)c1=O` (stereo not shown) [Example 38, 2,4-dimethyl-6-(3-phenoxy-pyrrolidin-1-yl)-2H-[1,2,4]triazine-3,5-dione], the melting point stood at 80 °C.
Next, `Cn1nc(N2CCC(Cc3cc(C(F)(F)F)ccc3F)CC2)c(=O)n(C)c1=O` [Example 39, 6-[4-(2-fluoro-5-trifluoromethyl-benzyl)-piperidin-1-yl]-2,4-dimethyl-2H-[1,2,4]triazine-3,5-dione]: 116 °C.
Compound `Cn1nc(N2CCN(C(=O)c3cc(C(F)(F)F)ccc3C(F)(F)F)CC2)c(=O)n(C)c1=O` [Example 40, 6-[4-(2,5-Bis-trifluoromethyl-benzoyl)-piperazin-1-yl]-2,4-dimethyl-2H-[1,2,4]triazine-3,5-dione] registered a melting point of 90 °C.
The compound `Cn1nc(N2CCN(C(=O)c3ccc(F)cc3C(F)(F)F)CC2)c(=O)n(C)c1=O` [Example 41, 6-[4-(4-fluoro-2-trifluoromethyl-benzoyl)-piperazin-1-yl]-2,4-dimethyl-2H-[1,2,4]triazine-3,5-dione] returned a melting point of 128 °C.
For `Cc1ccccc1C(=O)N1CCN(c2nn(C)c(=O)n(C)c2=O)CC1` [Example 43, 2,4-dimethyl-6-[4-(2-methyl-benzoyl)-piperazin-1-yl]-2H-[1,2,4]triazine-3,5-dione], the melting point was 60 °C.
`Cn1nc(N2CCN(C(=O)c3cccc(C(F)(F)F)c3)CC2)c(=O)n(C)c1=O` [Example 44, 2,4-dimethyl-6-[4-(3-trifluoromethyl-benzoyl)-piperazin-1-yl]-2H-[1,2,4]triazine-3,5-dione] displayed a melting point of 92 °C.
Next, `Cn1nc(N2CCN(C(=O)c3ccccc3Br)CC2)c(=O)n(C)c1=O` [Example 45, 6-[4-(2-bromo-benzoyl)-piperazin-1-yl]-2,4-dimethyl-2H-[1,2,4]triazine-3,5-dione]: 119 °C.
Take `Cn1nc(N2CCN(C(=O)c3ccccc3)CC2)c(=O)n(C)c1=O` [Example 46, 6-(4-benzoyl-piperazin-1-yl)-2,4-dimethyl-2H-[1,2,4]triazine-3,5-dione]: the melting point stood at 132 °C.
In the case of `CC(C)C(C(=O)N1CCN(c2nn(C)c(=O)n(C)c2=O)CC1)c1ccc(Cl)cc1` (stereo not shown) [Example 49, 6-{4-[2-(4-chloro-phenyl)-3-methyl-butyryl]-piperazin-1-yl}-2,4-dimethyl-2H-[1,2,4]triazine-3,5-dione], the melting point was found to be 58 °C.
Regarding `Cn1nc(N2CCN(C(=O)/C=C/c3ccc([N+](=O)[O-])cc3)CC2)c(=O)n(C)c1=O` [Example 50, 2,4-dimethyl-6-{4-[(E)-3-(4-nitro-phenyl)-acryloyl]-piperazin-1-yl}-2H-[1,2,4]triazine-3,5-dione], the melting point was 198 °C.
In the case of `Cn1nc(N2CCN(C(=O)Oc3cccc(C(F)(F)F)c3)CC2)c(=O)n(C)c1=O` [Example 51, 4-(2,4-dimethyl-3,5-dioxo-2,3,4,5-tetrahydro-[1,2,4]triazin-6-yl)-piperazine-1-carboxylic Acid 3-trifluoromethyl-phenyl Ester], the melting point came out at 93 °C.

The record behind these values is patent US8618287B2, “Derivatives of triazines and uracils, their preparation and their application in human therapeutics” (Pierre Fabre Medicament, priority 2008, dated 2013).
